{"source": "patent US20060089410A1", "about": "“Combination of chemotherapeutic drugs for increasing antitumor activity” (Titan Pharmaceuticals, Inc., priority 2002, published 2006)", "key": {"c-Myc oncogene": {"test_system": "c-Myc oncogene", "assay": "c-Myc oncogene expression, SK-MES-1 cells", "assay_type": "cell-based", "settings": "SK-MES-1, 96 hours in culture", "description": "(§1) T24 Bladder transitional carcinoma cells, Calu-6 anaplastic lung carcinoma cells, and SK-MES-1 squamous lung cell carcinoma cell cultures were purchased from the American Type Culture Collection (Manassas, Va.). All cell lines were cultured in RPMI-1640 with 10% fetal calf serum. For culture in microtiter dishes, cells were plated at a density of 10^4 cells/well and incubated at 37° C., 5% CO2 overnight.\n(§2) After overnight incubation, drugs were added to wells in quadruplicate and incubated for 6 to 96 hours in the presence or absence of the oxyalkylene containing compound. […] the media was removed, fresh media were added with cytotoxic drug, and the cultures were incubated for another 6 hours.\nTumor cell culture mRNA was isolated by standard methods, and RT-PCR was conducted to determine levels of c-Myc oncogene expression. The c-Myc primer pair used for RT-PCR cycling was:\nThe c-Myc primer pair was cycled by the following program: 95° C. for 3 min., then 30 cycles of (95° C. for 1 min., then 55° C. for 1 min., then 72° C. for 1 min.) followed by holding temperature at 72° C. for 7 min. before ramping temperature to 4° C. Samples were analyzed quantitatively by 1% agarose gel electrophoresis and gel densitometry."}, "[1]": {"test_system": "Calu-6 anaplastic lung carcinoma cells", "assay": "Crystal violet microtiter assay, Pivanex then cytotoxic drug, Calu-6", "assay_type": "cell-based", "description": "as §1, §2\n(§3) The wells were then washed and medium without drug was added to each well. Microtiter plates were subsequently incubated for an additional 3 days before cell density was determined by a Crystal Violet Assay. Some cultures were alternatively fixed in methanol and stained with hematoxylin and eosin (H&E) stain for 5 minutes prior to microphotography.\n(§4) PIVANEX (pivaloyloxymethyl butyrate) was obtained from Titan Pharmaceuticals Inc. (South San Francisco, Calif.) and was admixed with 0.05% Intralipid™ (Fresenius Kabi, Clayton, N.C.) prior to addition to culture media. The cytotoxic drugs gemcitabine (Gemzar; Eli Lilly and Co., Indianapolis, Ind.), cisplatin (Platinol, Bristol-Myers Squibb Co., Princeton, N.J.), paclitaxel (Taxol; Bristol-Myers Squibb Co., Princeton, N.J.), and docetaxel (Taxotere, Aventis Pharmaceuticals Products, Inc., Bridgewater, N.J.) were studied with PIVANEX.\n(§5) Cells in microtiter wells were rinsed with PBS and fixed in two volumes of 100% cold methanol for 5 minutes. One volume of 0.5% crystal violet in 20% methanol was added and the attached cells stained for 10 minutes. The cells were then washed and crystal violet was eluted with 0.1 N sodium citrate buffer and read on an ELISA plate reader at 490 nm."}, "[2]": {"test_system": "SK-MES-1 squamous lung cell carcinoma cell", "assay": "Crystal violet microtiter assay, Pivanex then cytotoxic drug, SK-MES-1", "assay_type": "cell-based", "settings": "for SK-MES-1 cancer cell viability (A^490 Absorbance): paclitaxel 0 μM", "description": "as §1, §2, §3, §4, §5"}, "tumor cells": {"test_system": "tumor cells", "assay": "Growth inhibitory and cytotoxic effects on tumor cells in tissue culture", "assay_type": "cell-based", "settings": "tumor cell line dependent", "source_text": "Testing of a pivaloyloxymethyl butyrate dose and schedule interactions with chemotherapy in tissue culture was undertaken to facilitate clinical planning.\n(§6) The observed morphologic changes consistent with a more differentiated phenotype prompted investigation of oncogene expression following exposure to pivaloyloxymethyl butyrate."}, "c-myc": {"test_system": "c-myc", "assay": "Oncogene expression after exposure of tumor cells", "assay_type": "cell-based", "settings": "72-hour exposure, 10-50 μM", "source_text": "as §6"}, "ras": {"test_system": "ras", "assay": "Oncogene expression after exposure of tumor cells", "assay_type": "cell-based", "settings": "72-hour exposure, 10-50 μM", "source_text": "as §6"}, "A549 lung cancer cells": {"test_system": "A549 lung cancer cells", "assay": "Pretreatment followed by various chemotherapeutic agents, A549", "assay_type": "cell-based, human", "description": "Human T24 bladder and A549 lung cancer cells were exposed to increasing concentrations of pivaloyloxymethyl butyrate for 6 or 72 hours followed by exposure to various chemotherapeutic agents. […] At higher dosages the increase in cytotoxicity following the sequential regimen would show after a shorter induction period with pivaloyloxymethyl butyrate as discussed above."}, "[3]": {"assay": "Biological evaluations (myeloablation, myelosuppression)", "source_text": "Pivaloyloxymethyl butyrate functions as a differentiating agent with activity against multiple tumor cell types in culture."}}}
{"smiles": "CCCC(=O)OCOC(=O)C(C)(C)C", "note": "[Pivanex, pivaloyloxymethyl butyrate]", "values": [{"measurement": "concentrations (as low as) that decreased the expression of c-Myc oncogene", "setting": "c-Myc oncogene", "result": "10 to 50", "unit": "µM"}, {"measurement": "Calu-6 cancer cell viability (A^490 Absorbance)", "setting": "[1]; Pivanex 10 μM, cisplatin 0 μM", "result": 0.617}, {"measurement": "Calu-6 cancer cell viability (A^490 Absorbance)", "setting": "[1]; Pivanex 10 μM, docetaxel 0 nM", "result": 0.732}, {"measurement": "Calu-6 cancer cell viability (A^490 Absorbance)", "setting": "[1]; Pivanex 10 μM, gemcitabine 0 nM", "result": 0.617}, {"measurement": "Calu-6 cancer cell viability (A^490 Absorbance)", "setting": "[1]; Pivanex 50 μM, cisplatin 0 μM", "result": 0.577}, {"measurement": "Calu-6 cancer cell viability (A^490 Absorbance)", "setting": "[1]; Pivanex 50 μM, docetaxel 0 nM", "result": 0.553}, {"measurement": "Calu-6 cancer cell viability (A^490 Absorbance)", "setting": "[1]; Pivanex 50 μM, gemcitabine 0 nM", "result": 0.577}, {"measurement": "Calu-6 cancer cell viability (A^490 Absorbance)", "setting": "[1]; Pivanex 100 μM, cisplatin 0 μM", "result": 0.284}, {"measurement": "Calu-6 cancer cell viability (A^490 Absorbance)", "setting": "[1]; Pivanex 100 μM, gemcitabine 0 nM", "result": 0.284}, {"measurement": "SK-MES-1 cancer cell viability (A^490 Absorbance)", "setting": "[2]; Pivanex 10 μM", "result": 0.743}, {"measurement": "SK-MES-1 non-small cancer cell viability (A^490 Absorbance)", "setting": "[2]; Pivanex 25 μM alone", "result": 1.852}, {"measurement": "SK-MES-1 cancer cell viability (A^490 Absorbance)", "setting": "[2]; Pivanex 50 μM", "result": 0.769}, {"measurement": "SK-MES-1 non-small cancer cell viability (A^490 Absorbance)", "setting": "[2]; Pivanex 100 μM alone", "result": 1.908}, {"measurement": "SK-MES-1 non-small cancer cell viability (A^490 Absorbance)", "setting": "[2]; Pivanex 200 μM alone", "result": 1.952}, {"measurement": "concentrations at which cytotoxicity was observed", "setting": "tumor cells; 6-hour exposure", "result": "greater than 125 μM"}, {"measurement": "concentrations at which cytotoxicity was observed", "setting": "tumor cells; 72 hours of treatment", "result": "greater than 25 μM"}, {"measurement": "c-myc expression", "setting": "c-myc", "result": "significant suppression"}, {"measurement": "ras expression", "setting": "ras", "result": "significant suppression"}, {"measurement": "enhancement of cytotoxicity of chemotherapeutic agents", "setting": "A549 lung cancer cells; A549, 6-hour pretreatment, lower doses", "result": "did not enhance cytotoxicity"}, {"measurement": "enhancement of cytotoxicity of chemotherapeutic agents", "setting": "A549 lung cancer cells; A549, 72-hour pretreatment", "result": "did enhance drug-induced cytotoxicity"}, {"measurement": "myeloablation / myelosuppression", "setting": "[3]", "result": "non-myeloablative and non-myelosuppressive"}]}
